From ChEMBL document CHEMBL1201862, “PubChem BioAssay data set” (2004)
Calls of active or inactive are those of the source.

What was measured:
HEK293 [1] = test: cells; details: Homo sapiens
HEK293 [2] = test: cells; details: Homo sapiens; remark: listed apart in the source
[3] = target: Voltage-gated inwardly rectifying potassium channel KCNH2 (Homo sapiens, UniProt Q12809); details: Potency;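 further: confirmatory quantitative high-throughput screen measuring inhibition of hERG channel activity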
Chain of Voltage-gated inwardly rectifying potassium channel KCNH2 (Q12809 whole entry): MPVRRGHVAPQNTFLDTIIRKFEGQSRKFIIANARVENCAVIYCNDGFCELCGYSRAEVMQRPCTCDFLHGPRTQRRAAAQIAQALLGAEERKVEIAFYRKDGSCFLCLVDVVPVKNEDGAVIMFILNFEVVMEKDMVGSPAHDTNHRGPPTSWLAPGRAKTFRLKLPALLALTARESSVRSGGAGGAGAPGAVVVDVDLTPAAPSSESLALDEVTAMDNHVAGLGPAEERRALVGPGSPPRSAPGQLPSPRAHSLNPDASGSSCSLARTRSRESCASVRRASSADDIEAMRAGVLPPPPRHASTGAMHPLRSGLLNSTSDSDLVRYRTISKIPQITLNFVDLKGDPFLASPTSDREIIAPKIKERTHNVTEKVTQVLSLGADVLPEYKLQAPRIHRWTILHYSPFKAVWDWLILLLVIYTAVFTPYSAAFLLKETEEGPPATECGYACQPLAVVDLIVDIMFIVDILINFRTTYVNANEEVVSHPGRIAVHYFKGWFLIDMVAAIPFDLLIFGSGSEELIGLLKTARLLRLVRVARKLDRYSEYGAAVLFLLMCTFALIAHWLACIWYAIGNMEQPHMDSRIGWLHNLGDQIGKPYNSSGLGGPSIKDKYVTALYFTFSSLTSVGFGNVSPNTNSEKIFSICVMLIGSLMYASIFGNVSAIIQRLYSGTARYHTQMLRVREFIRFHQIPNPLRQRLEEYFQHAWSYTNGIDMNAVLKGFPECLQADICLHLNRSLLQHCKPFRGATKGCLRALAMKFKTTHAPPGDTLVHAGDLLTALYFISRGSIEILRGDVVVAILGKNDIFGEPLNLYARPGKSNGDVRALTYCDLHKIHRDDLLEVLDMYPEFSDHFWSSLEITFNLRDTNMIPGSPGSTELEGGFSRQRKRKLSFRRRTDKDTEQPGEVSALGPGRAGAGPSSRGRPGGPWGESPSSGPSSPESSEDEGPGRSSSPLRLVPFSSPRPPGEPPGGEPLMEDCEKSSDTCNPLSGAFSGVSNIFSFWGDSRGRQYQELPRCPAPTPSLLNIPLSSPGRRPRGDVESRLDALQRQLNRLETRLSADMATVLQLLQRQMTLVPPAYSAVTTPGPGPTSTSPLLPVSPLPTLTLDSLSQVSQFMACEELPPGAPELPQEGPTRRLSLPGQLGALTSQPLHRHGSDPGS

Cytochrome P450 1A2 = target: T1, Cytochrome P450 1A2 (Homo sapiens, UniProt P05177);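 further: PubChem cytochrome P450 panel assay, CYP1A2 panel member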
T1 sequence (P05177 whole entry): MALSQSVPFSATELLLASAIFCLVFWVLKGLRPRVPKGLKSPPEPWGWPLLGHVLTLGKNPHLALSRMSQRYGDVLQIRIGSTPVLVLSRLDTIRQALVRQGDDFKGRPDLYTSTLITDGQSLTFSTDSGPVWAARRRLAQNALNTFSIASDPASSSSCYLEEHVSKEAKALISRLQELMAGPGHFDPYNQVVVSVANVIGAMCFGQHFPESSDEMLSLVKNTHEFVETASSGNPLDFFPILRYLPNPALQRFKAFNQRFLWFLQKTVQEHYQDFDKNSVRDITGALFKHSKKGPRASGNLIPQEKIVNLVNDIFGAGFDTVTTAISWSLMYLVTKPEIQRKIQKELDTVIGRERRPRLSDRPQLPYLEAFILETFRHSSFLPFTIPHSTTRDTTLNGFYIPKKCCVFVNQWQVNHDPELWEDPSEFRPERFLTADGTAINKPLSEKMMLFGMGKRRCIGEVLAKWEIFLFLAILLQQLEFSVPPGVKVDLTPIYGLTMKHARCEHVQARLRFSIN

Cytochrome P450 2C9 [4] = target: T2, Cytochrome P450 2C9 (Homo sapiens, UniProt P11712)
T2 sequence (P11712 whole entry): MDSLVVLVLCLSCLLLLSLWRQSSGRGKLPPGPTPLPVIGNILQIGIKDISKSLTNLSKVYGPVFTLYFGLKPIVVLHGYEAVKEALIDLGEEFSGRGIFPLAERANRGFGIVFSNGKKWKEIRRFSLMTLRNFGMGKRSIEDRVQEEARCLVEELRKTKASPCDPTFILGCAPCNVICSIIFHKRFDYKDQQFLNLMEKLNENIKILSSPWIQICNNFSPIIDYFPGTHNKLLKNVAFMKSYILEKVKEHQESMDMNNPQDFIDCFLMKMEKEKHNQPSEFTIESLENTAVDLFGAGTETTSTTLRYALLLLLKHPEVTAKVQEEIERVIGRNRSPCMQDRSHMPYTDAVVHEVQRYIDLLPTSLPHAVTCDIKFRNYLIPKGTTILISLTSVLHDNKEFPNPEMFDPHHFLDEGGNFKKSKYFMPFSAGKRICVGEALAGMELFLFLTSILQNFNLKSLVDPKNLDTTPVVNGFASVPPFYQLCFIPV

Cytochrome P450 2C19 = Cytochrome P450 2C19 (Homo sapiens, UniProt P33261); test: Cytochrome panel assay with activity outcomes. Panel member name: p450-cyp2c19 Compounds with AC50 equal or less than 10 uM are considered active; assay type: functional; details: read-out: AC50
Chain of Cytochrome P450 2C19 (P33261 whole entry): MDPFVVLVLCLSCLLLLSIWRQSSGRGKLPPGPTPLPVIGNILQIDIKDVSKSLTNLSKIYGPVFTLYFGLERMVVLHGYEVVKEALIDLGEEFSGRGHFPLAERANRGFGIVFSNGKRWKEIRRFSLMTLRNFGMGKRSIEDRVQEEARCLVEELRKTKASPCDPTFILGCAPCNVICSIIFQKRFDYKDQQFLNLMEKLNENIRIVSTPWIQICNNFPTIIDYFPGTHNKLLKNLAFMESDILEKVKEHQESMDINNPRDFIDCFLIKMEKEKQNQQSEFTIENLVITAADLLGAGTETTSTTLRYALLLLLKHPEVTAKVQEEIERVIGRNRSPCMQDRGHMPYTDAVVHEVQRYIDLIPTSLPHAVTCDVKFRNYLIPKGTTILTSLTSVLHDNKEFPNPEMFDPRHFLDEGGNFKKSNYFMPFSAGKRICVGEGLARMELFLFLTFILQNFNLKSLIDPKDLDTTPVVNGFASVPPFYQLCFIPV

Cytochrome P450 2D6 = Cytochrome P450 2D6 (Homo sapiens, UniProt P10635);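 further: CYP2D6 member of a cytochrome P450 panel assay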
Chain of Cytochrome P450 2D6 (P10635 whole entry): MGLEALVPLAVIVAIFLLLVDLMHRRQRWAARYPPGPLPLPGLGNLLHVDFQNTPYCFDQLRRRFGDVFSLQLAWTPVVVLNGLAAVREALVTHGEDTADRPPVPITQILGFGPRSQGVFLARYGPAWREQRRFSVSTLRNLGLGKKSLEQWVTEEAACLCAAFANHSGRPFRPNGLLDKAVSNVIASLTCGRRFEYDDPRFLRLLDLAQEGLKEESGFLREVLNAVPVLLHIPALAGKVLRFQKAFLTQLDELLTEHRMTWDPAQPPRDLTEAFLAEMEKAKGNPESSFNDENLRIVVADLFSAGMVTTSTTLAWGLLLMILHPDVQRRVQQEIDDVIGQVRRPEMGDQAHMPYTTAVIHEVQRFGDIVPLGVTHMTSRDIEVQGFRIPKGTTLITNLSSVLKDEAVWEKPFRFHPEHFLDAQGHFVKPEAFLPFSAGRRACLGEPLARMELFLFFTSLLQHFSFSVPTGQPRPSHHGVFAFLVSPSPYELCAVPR

Cytochrome P450 2C9 [5] = target: T2, Cytochrome P450 2C9; remark: listed apart in the source
[6] = target: T3, Aryl hydrocarbon receptor (Homo sapiens, UniProt P35869); details: Potency;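 further: confirmatory quantitative high-throughput screen measuring activation of the AhR signaling pathway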
T3 sequence (P35869 whole entry): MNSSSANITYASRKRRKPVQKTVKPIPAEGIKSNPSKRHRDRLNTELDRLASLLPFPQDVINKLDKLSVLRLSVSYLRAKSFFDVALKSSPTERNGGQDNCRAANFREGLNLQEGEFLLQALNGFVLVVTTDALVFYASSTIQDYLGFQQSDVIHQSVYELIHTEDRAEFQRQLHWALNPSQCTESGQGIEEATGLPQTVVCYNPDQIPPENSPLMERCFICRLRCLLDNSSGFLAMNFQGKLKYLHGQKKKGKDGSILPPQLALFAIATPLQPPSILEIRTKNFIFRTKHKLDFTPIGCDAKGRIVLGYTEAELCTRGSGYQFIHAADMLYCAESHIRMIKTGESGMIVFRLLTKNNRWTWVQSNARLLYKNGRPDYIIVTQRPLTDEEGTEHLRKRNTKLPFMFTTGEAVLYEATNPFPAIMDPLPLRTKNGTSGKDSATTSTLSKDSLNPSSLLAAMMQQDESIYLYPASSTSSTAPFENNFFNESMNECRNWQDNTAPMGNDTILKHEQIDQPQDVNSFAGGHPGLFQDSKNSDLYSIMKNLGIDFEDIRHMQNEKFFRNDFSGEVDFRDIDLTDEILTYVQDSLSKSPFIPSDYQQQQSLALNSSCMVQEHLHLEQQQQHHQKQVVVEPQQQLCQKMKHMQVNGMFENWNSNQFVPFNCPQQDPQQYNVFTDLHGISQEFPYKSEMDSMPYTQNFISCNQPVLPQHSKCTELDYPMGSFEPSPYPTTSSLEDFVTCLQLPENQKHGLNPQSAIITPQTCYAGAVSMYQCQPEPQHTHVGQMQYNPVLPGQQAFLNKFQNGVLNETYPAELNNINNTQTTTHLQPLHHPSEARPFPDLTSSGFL

[7] = target: Induced myeloid leukemia cell differentiation protein Mcl-1 (Homo sapiens, UniProt Q07820); assay type: functional
Chain of Induced myeloid leukemia cell differentiation protein Mcl-1 (Q07820 whole entry): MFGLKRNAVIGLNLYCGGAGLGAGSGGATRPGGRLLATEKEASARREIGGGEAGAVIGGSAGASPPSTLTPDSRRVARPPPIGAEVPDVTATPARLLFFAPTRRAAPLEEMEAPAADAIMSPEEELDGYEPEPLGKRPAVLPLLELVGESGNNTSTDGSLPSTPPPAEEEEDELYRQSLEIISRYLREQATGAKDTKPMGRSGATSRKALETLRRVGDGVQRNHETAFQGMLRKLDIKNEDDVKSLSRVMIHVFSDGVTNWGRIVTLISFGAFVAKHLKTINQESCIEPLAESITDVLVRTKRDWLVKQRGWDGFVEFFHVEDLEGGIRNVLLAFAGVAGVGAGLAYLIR

[8] = microbe, parasite or virus in culture; assay type: functional; details: Mycobacterium tuberculosis

## COc1ccc(CC(C)NCC(O)c2ccc(O)c(NC=O)c2)cc1 (centres undefined)
HEK293 [1]
  EC50: > 59.6 µM (inactive)
HEK293 [2]
  EC50: > 59.6 µM (inactive)

## CCCCCCCCCCCCCC(=O)O[C@@H]1[C@@H](C)[C@@]2(O)[C@@H](C=C(CO)C[C@@]3(O)C(=O)C(C)=C[C@@H]23)C2C(C)(C)[C@@]21OC(C)=O (some centres undefined)
[3]
  AC50: 0.112 µM (inconclusive)

## CCCCCCN(CCCCCC)C(=O)Cc1c(-c2ccc(F)cc2)[nH]c2ccccc12
[3]
  AC50: 8.91 µM (inconclusive)
Cytochrome P450 1A2
  AC50: 15.8 µM (inconclusive)
Cytochrome P450 2C9 [4]
  AC50: 5.01 µM (inconclusive)

## COc1ccc2[nH]c([S+]([O-])Cc3ncc(C)c(OC)c3C)nc2c1 (centres undefined) [OMEPRAZOLE]
Cytochrome P450 2C19
  AC50: 2.51 µM (active)
Cytochrome P450 1A2
  AC50: 31.6 µM (inconclusive)
Cytochrome P450 2D6
  AC50: inactive
Cytochrome P450 2C9 [5]
  AC50: inactive
[6]
  AC50: 20 µM (inconclusive)
[7]
  IC50: 3.14 µM (active)

## CCCCCC(O)c1cccc(OCc2ccc3ccccc3n2)c1 (centres undefined) [REV-5901]
[3]
  AC50: 35.5 µM (inconclusive)
[8]
  CC50: > 40 µM (active)
